Results published in US20050158374A1, “Compositions and dosage forms for enhanced absorption of metformin” (priority 2003, published 2005).
Values after ≈ are worked out from the molar mass of the structure shown. Where a name gives a salt, the structure may show the parent alone. Read-outs that look alike come from different tables or passages of the source.

Assays:
[1] = cited from earlier work
[2] = intravenous administration of metformin HCl to rats; conditions: for Metformin base plasma concentration, Average / Metformin base plasma concentration, Rat2 / Metformin base plasma concentration, Rat3 / Metformin base plasma concentration, Rat1: 2 mg/kg intravenously
[3] = for macroscopic evaluation of the G.I. tract for signs of irritation: end of oral gavage study; for time of plasma concentration maximum after treatment: rat, in vivo, po
in vivo [4] = conditions: Sprague-Dawley, rat, plasma, iv, 2 mg/kg
[5] = in vivo colonic absorption using flushed ligated colonic model in rats; conditions: 10 mg/rat intubated into ligated colon
in vivo [6] = conditions: rat, po, 40 mg/kg
in vivo [7] = conditions: male, Sprague-Dawley, rat, plasma, other: intracolonic bolus, ligated colon, 10 mg/rat
[8] = in vivo
[9] = conductivity of complexes in aqueous solutions; conditions: aqueous solution pH≅5.8, 23° C.

In the case of CCCCCCCCCCCC(=O)O [Lauric (12), lauric acid], the “Solubility in Acetic acid” value ([1]; 20° C.) is given as 818 mg/mL (≈ 4080 mM), the “Solubility in Acetone” value ([1]; 20° C.) is given as 605 mg/mL (≈ 3020 mM) and the “Solubility in Acetonitrile” value ([1]; 20° C.) is given as 76 mg/mL (≈ 379 mM). The “Solubility in Benzene” value ([1]; 20° C.) was 936 mg/mL (≈ 4670 mM), the “Solubility in Chloroform” value ([1]; 20° C.) was 830 mg/mL (≈ 4140 mM) and the “Solubility in Cyclohexanne” value ([1]; 20° C.) was 680 mg/mL (≈ 3390 mM). The “Solubility in Ethanol 95%” value ([1]; 20° C.) was 912 mg/mL (≈ 4550 mM) and the “Solubility in Methanol” value ([1]; 20° C.) was 1200 mg/mL (≈ 5990 mM).

For CN(C)C(=N)N=C(N)N [Metformin HCl, metformin hydrochloride], the “Metformin base plasma concentration, Average” value ([2]; Time 0 h) was 0.0 ng/mL, the “Metformin base plasma concentration, Rat2” value ([2]; Time 0 h) was 0 ng/mL and the “Metformin base plasma concentration, Rat3” value ([2]; Time 0 h) was 0 ng/mL. The “Metformin base plasma concentration, Average” value ([2]; Time 2 min) was 2483.3 ng/mL, the “Metformin base plasma concentration, Rat1” value ([2]; Time 2 min) was 1430 ng/mL and the “Metformin base plasma concentration, Rat2” value ([2]; Time 2 min) was 2370 ng/mL. For the same compound, the “Metformin base plasma concentration, Rat3” value ([2]; Time 2 min) was 3650 ng/mL, the “Metformin base plasma concentration, Average” value ([2]; Time 0.5 h) was 229.2 ng/mL and the “Metformin base plasma concentration, Rat1” value ([2]; Time 0.5 h) was 262 ng/mL. For the same compound, the “Metformin base plasma concentration, Rat2” value ([2]; Time 0.5 h) was 331 ng/mL, the “Metformin base plasma concentration, Rat3” value ([2]; Time 0.5 h) was 94.7 ng/mL and the “Metformin base plasma concentration, Average” value ([2]; Time 1 h) was 30.4 ng/mL. The “Metformin base plasma concentration, Rat3” value ([2]; Time 1 h) was 25.2 ng/mL, the “Metformin base plasma concentration, Average” value ([2]; Time 1.5 h) was 22.1 ng/mL and the “Metformin base plasma concentration, Rat1” value ([2]; Time 1.5 h) was 0 ng/mL. The “Metformin base plasma concentration, Rat2” value ([2]; Time 1.5 h) was 66.3 ng/mL, the “Metformin base plasma concentration, Rat3” value ([2]; Time 1.5 h) was 0 ng/mL and the “Metformin base plasma concentration, Average” value ([2]; Time 2 h) was 0.0 ng/mL. The “Metformin base plasma concentration, Rat2” value ([2]; Time 2 h) was 0 ng/mL, the “Metformin base plasma concentration, Rat3” value ([2]; Time 2 h) was 0 ng/mL and the “Metformin base plasma concentration, Average” value ([2]; Time 3 h) was 0.0 ng/mL. For the same compound, the “Metformin base plasma concentration, Rat2” value ([2]; Time 3 h) was 0 ng/mL, the “Metformin base plasma concentration, Rat3” value ([2]; Time 3 h) was 0 ng/mL and the “Area Under the Curve (0-4 hrs, based on 1 mg base/rat)” value ([2]; i.v.) was 692.5 ng · h/mL-mg. The “macroscopic evaluation of the G.I. tract for signs of irritation” value [3] was “No irritation”, the “time of plasma concentration maximum after treatment” value [3] was “about 1 hour” and the concentration at 0 h (in vivo [4]) was 0 ng/mL. The concentration at 1 h (in vivo [4]) was 35.5 ng/mL, the concentration at 2 h (in vivo [4]) was 0 ng/mL and the concentration at 3 h (in vivo [4]) was 0 ng/mL. The “Area Under the Curve (0-4 hrs, based on 1 mg base/rat)” value [5] was 29.2 ng · h/mL-mg, the Cmax (in vivo [6]) was about 4080 ng/mL and the concentration at 0 h (in vivo [7]) was 0 ng/mL.

In the case of CCCCCCCCCC(=O)O.CN(C)C(=N)N=C(N)N [Metformin caprate], the “Area Under the Curve (0-4 hrs, based on 1 mg base/rat)” value [8] is reported as 548.0 ng · h/mL-mg.

For CCCCCCCCCCCC(=O)O.CN(C)C(=N)N=C(N)N [Metformin laurate], the “Area Under the Curve (0-4 hrs, based on 1 mg base/rat)” value [8] was 674.5 ng · h/mL-mg, the “macroscopic evaluation of the G.I. tract for signs of irritation” value [3] was “No irritation” and the “time of plasma concentration maximum after treatment” value [3] was “about 1 hour”.

In the case of CCCCCCCCCCCCCC(=O)O [myristic (14), myristic acid], the “Solubility in Acetic acid” value [1] is given as 102 mg/mL (≈ 447 mM), the “Solubility in Acetone” value [1] is given as 159 mg/mL (≈ 696 mM) and the “Solubility in Acetonitrile” value [1] is given as 18 mg/mL (≈ 78.8 mM). The “Solubility in Benzene” value [1] was 292 mg/mL (≈ 1280 mM), the “Solubility in Chloroform” value [1] was 325 mg/mL (≈ 1420 mM) and the “Solubility in Cyclohexanne” value [1] was 215 mg/mL (≈ 941 mM). The “Solubility in Ethanol 95%” value [1] was 189 mg/mL (≈ 828 mM) and the “Solubility in Methanol” value [1] was 173 mg/mL (≈ 758 mM).

Compound Metformin oleate has a Conductivity ([9]; metformin concentration 5 mM) of 136 μS/cm, a Conductivity ([9]; metformin concentration 10 mM) of 235 μS/cm and a Conductivity ([9]; metformin concentration 20 mM) of 405 μS/cm. For the same compound, the “Area Under the Curve (0-4 hrs, based on 1 mg base/rat)” value [5] was 408.3 ng · h/mL-mg.
